Test results from patent publication US20250340574A1, “MODULATORS OF CYSTIC FIBROSIS TRANSMEMBRANE CONDUCTANCE REGULATOR” (Vertex Pharmaceuticals Incorporated, priority 2022, published 2025).
Where two headings read alike, the source gives them in different places.

Molecular target: T1, CFTR (F508del/MF-HBE cells) (Homo sapiens, UniProt P13569, DEL508-508)
T1 construct: human bronchial epithelial (HBE) cells derived from CF subjects heterozygous for F508del and a minimal function CFTR mutation (F508del/MF-HBE); endogenous in cells; host or cells: Primary human bronchial epithelial cells from CF subjects (F508del/MF genotype), differentiated at an air-liquid interface
T1 sequence (P13569 with tags, fused parts or gaps DEL508-508): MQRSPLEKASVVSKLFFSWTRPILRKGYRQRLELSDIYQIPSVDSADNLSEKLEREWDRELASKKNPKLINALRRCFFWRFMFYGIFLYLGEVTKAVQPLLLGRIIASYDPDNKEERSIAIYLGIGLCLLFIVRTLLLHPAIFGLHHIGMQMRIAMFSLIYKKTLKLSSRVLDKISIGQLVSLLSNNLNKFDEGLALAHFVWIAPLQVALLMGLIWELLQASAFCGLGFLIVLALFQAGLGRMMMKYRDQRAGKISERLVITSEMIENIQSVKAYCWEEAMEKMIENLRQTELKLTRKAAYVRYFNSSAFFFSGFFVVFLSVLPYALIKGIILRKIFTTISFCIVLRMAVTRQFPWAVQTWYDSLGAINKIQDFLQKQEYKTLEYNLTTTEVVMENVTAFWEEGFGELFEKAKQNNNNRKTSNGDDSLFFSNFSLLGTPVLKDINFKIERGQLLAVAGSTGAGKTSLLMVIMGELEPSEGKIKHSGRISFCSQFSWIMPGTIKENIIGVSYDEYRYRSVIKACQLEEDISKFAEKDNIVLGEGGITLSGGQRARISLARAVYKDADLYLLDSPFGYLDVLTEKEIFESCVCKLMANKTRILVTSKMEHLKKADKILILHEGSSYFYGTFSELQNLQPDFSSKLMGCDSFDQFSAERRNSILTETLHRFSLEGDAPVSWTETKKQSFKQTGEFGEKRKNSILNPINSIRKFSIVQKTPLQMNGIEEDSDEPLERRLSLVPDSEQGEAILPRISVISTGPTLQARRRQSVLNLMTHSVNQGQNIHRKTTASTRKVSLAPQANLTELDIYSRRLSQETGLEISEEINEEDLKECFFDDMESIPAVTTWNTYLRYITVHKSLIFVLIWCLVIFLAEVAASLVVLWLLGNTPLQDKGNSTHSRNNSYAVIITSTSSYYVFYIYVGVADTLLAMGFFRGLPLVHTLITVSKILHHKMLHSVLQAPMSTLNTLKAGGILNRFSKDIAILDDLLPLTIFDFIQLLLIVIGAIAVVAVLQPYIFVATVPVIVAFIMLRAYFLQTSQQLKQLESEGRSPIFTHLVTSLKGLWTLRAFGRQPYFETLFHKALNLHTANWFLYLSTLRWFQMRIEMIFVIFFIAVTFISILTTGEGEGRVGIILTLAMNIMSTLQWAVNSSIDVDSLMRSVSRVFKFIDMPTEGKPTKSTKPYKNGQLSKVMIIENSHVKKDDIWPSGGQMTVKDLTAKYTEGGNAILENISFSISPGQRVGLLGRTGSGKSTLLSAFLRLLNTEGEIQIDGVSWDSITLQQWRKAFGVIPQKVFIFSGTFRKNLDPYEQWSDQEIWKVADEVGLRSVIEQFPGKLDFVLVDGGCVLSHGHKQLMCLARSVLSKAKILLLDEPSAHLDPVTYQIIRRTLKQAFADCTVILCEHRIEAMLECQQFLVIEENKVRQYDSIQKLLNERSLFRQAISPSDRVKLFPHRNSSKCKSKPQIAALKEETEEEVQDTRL
Assay: Ussing chamber assay of CFTR-mediated short-circuit currents, Assay C (0.026 μM to 25 μM, 6 concentrations)
Type: cell-based
Conditions: with 33 nM potentiator and 18 μM Tezacaftor, 20% human serum; for Emax: read-out: C Max activity (%)
Description: Ussing chamber experiments were performed using human bronchial epithelial (HBE) cells derived from CF subjects heterozygous for F508del and a minimal function CFTR mutation (F508del/MF-HBE) and cultured as previously described (Neuberger T, Burton B, Clark H, Van Goor F Methods Mol Biol 2011:741:39-54). After four days the apical media was removed, and the cells were grown at an air liquid interface for >14 days prior to use.
To isolate the CFTR-mediated short-circuit (ISC) current, F508del/MF-HBE grown on Costar® Snapwell™ cell culture inserts were mounted in an Ussing chamber and the transepithelial ISC was measured under voltage-clamp recording conditions (Vhold=0 mV) at 37° C. The basolateral solution contained (in mM) 145 NaCl, 0.83 K2HPO4, 3.3 KH2PO4, 1.2 MgCl2, 1.2 CaCl2, 10 Glucose, 10 HEPES (pH adjusted to 7.4 with NaOH) and the apical solution contained (in mM) 145 NaGluconate, 1.2 MgCl2, 1.2 CaCl2, 10 glucose, 10 HEPES (pH adjusted to 7.4 with NaOH) and 30 μM amiloride to block the epithelial sodium channel. Forskolin (20 μM) was added to the apical surface to activate CFTR, followed by apical addition of a CFTR inhibitor cocktail consisting of BPO, GlyH-101, and CFTR inhibitor 172 (each at 20 μM final assay concentration) to specifically isolate CFTR currents. The CFTR-mediated ISC (μA/cm^2) for each condition was determined from the peak forskolin response to the steady-state current following inhibition.
The activity of the CFTR corrector compounds on the CFTR-mediated ISC was determined in Ussing chamber studies as described above. The F508del/MF-HBE cell cultures were either incubated with the corrector compounds at a range of concentrations in combination with 33 nM (6R,12R)-17-amino-12-methyl-6,15-bis(trifluoromethyl)-13,19-dioxa-3,4,18-triazatricyclo[12.3.1.12,5]nonadeca-1(18),2,4,14,16-pentaen-6-ol and 18 μM Tezacaftor or were incubated with the corrector compounds at a single fixed concentration of 1 μM in combination with 44 nM (6R,12R)-17-amino-12-methyl-6,15-bis(trifluoromethyl)-13,19-dioxa-3,4,18-triazatricyclo[12.3.1.12,5]nonadeca-1(18),2,4,14,16-pentaen-6-ol and 18 μM Tezacaftor for 18-24 hours at 37° C. and in the presence of 20% human serum. The concentration of corrector compounds with 44 nM or 33 nM (6R,12R)-17-amino-12-methyl-6,15-bis(trifluoromethyl)-13,19-dioxa-3,4,18-triazatricyclo[12.3.1.12,5]nonadeca-1(18),2,4,14,16-pentaen-6-ol and 18 μM Tezacaftor during the 18-24 hours incubations was kept constant throughout the Ussing chamber measurement of the CFTR-mediated ISC to ensure compounds were present throughout the entire experiment. The efficacy and potency of the putative F508del correctors was compared to that of the known Vertex corrector, (14S)-8-[3-(2-{Dispiro[2.0.2.1]heptan-7-yl}ethoxy)-1H-pyrazol-1-yl]-12,12-dimethyl-2λ^6-thia-3,9,11,18,23-pentaazatetracyclo[17.3.1.111,14.05,10]tetracosa-1(22),5,7,9,19(23),20-hexaene-2,2,4-trione, in combination with 18 μM Tezacaftor and 1 μM Ivacaftor.
• Assay A: 0.1 μM to 25 μM, 6 concentrations • Assay B: 0.00001 μM to 25 μM, 12 concentrations • Assay C: 0.026 μM to 25 μM, 6 concentrations • Assay D: Activity at single concentration of 1 μM

Row | Emax (18-24 hours) [%] | EC50 [µM] | Emax [%] | SMILES
1 | > 60 | < 1 |  | Cc1cccc(CC2CCCCC2)c1-c1nc2nc(c1C)OC[C@@H](CC(C)(C)C)N(Cc1cnc3cc(C(C)C)n(C)c3n1)C(=O)c1cccc(c1)S(=O)(=O)N2 (atropisomer, axis not shown) [Compound I-178]
2 | > 60 | 3 to 30 |  | Cc1cccc(C(C)C)c1-c1nc2nc(c1C)OC[C@@H](CC(C)(C)C)N(Cc1cnc3cc(C(C)C)n(C)c3n1)C(=O)c1cccc(c1)S(=O)(=O)N2 (atropisomer, axis not shown) [Compound I-179]
3 | > 60 | < 1 |  | Cc1cccc(CC(C)(C)C)c1-c1nc2nc(c1C)OC[C@@H](CC(C)(C)C)N(Cc1cnc3oc(C(C)(C)C)cc3n1)C(=O)c1cccc(c1)S(=O)(=O)N2 (atropisomer, axis not shown) [Compound I-245]
4 | > 60 | 1 to 3 |  | Cc1cccc(OC(C)C)c1-c1nc2nc(c1C)OC[C@@H](CC(C)(C)C)N(Cc1cnc3oc(C(C)(C)C)cc3n1)C(=O)c1cccc(c1)S(=O)(=O)N2 (atropisomer, axis not shown) [Compound I-249]
5 | > 60 | 1 to 3 |  | Cc1cccc(CC(C)C)c1-c1nc2nc(c1C)OC[C@@H](CC(C)(C)C)N(Cc1cnc3oc(C4(C)CC4)cc3n1)C(=O)c1cccc(c1)S(=O)(=O)N2 (atropisomer, axis not shown) [Compound I-257]
6 | > 60 | < 1 |  | Cc1cccc(OC(C)C)c1-c1nc2nc(c1C)OC[C@@H](CC(C)(C)C)N(Cc1cnc3cc(C(C)(C)C)n(C)c3n1)C(=O)c1cccc(c1)S(=O)(=O)N2 (atropisomer, axis not shown) [Compound I-260]
7 |  | 1 to 3 | > 60 | Cc1cccc(CC(C)C)c1-c1nc2nc(c1C)OC[C@@H](CC(C)(C)C)N(Cc1ncc3cc(C4CC4)n(C)c3n1)C(=O)c1cccc(c1)S(=O)(=O)N2 (atropisomer, axis not shown) [IV-25]
8 |  | 1 to 3 | > 60 | Cc1cccc(CC(C)C)c1-c1nc2nc(c1C)OC[C@@H](COC(C)C)N(Cc1cnc3oc(C(C)(C)C)cc3n1)C(=O)c1cccc(c1)S(=O)(=O)N2 (atropisomer, axis not shown) [IV-43]
9 |  | 1 to 3 | > 60 | Cc1cccc(CC(C)C)c1-c1nc2nc(c1C)OC[C@@H](CC1(C)CC1)N(Cc1cnc3cc(C4(C(F)(F)F)CC4)n(C)c3n1)C(=O)c1cccc(c1)S(=O)(=O)N2 (atropisomer, axis not shown) [IV-77]
10 |  | < 1 | > 60 | Cc1cccc(CC(C)C)c1-c1nc2nc(c1C)OC[C@@H](C(C)C)N(Cc1cnc3cc(C(C)(C)C)n(C)c3n1)C(=O)c1cccc(c1)S(=O)(=O)N2 (atropisomer, axis not shown) [IV-79]
11 |  | < 1 | > 60 | Cc1cccc(CC(C)C)c1-c1nc2nc(c1C)OC[C@@H](C[C@@H]1CCCCO1)N(Cc1cnc3cc(C(C)(C)C)n(C)c3n1)C(=O)c1cccc(c1)S(=O)(=O)N2 (atropisomer, axis not shown) [IV-81]
12 |  | < 1 | > 60 | Cc1cccc(CC(C)C)c1-c1nc2nc(c1C)OC[C@@H]([C@@H]1CCCO1)N(Cc1cnc3cc(C(C)(C)C)n(C)c3n1)C(=O)c1cccc(c1)S(=O)(=O)N2 (atropisomer, axis not shown) [IV-95]
13 | > 60 | < 1 |  | Cc1cccc(CC2CCCC2)c1-c1nc2nc(c1C)OC[C@@H](CC(C)(C)C)N(Cc1cnc3cc(C(C)C)n(C)c3n1)C(=O)c1cccc(c1)S(=O)(=O)N2 (atropisomer, axis not shown; (P)) [Compound I-196, (5P,11R)-6-[2-(cyclopentylmethyl)-6-methylphenyl]-11-(2,2-dimethylpropyl)-7-methyl-12-{[5-methyl-6-(propan-2-yl)-5H-pyrrolo[2,3-b]pyrazin-3-yl]methyl}-9-oxa-2λ^6-thia-3,5,12,19-tetraazatricyclo[12.3.1.1∧{4,8}]nonadeca-1(17),4(19),5,7,14(18),15-hexaene-2,2,13-trione]
14 |  | 1 to 3 | > 60 | Cc1cccc(CC(C)C)c1-c1nc2nc(c1C)OC[C@@H](COC(F)(F)F)N(Cc1cnc3cc(C(C)(C)C)n(C)c3n1)C(=O)c1cccc(c1)S(=O)(=O)N2 (atropisomer, axis not shown; (P)) [IV-70, (6P,11S)-12-({6-tert-butyl-5-methyl-5H-pyrrolo[2,3-b]pyrazin-3-yl}methyl)-7-methyl-6-[2-methyl-6-(2-methylpropyl)phenyl]-11-[(trifluoromethoxy)methyl]-9-oxa-2λ^6-thia-3,5,12,19-tetraazatricyclo[12.3.1.1∧{4,8}]nonadeca-1(17),4,6,8(19),14(18),15-hexaene-2,2,13-trione]
15 |  | < 1 | > 60 | Cc1cccc(CC(C)C)c1-c1nc2nc(c1C)OC[C@@H](COC(C)C)N(Cc1cnc3cc(C4(C(F)(F)F)CC4)n(C)c3n1)C(=O)c1cccc(c1)S(=O)(=O)N2 (atropisomer, axis not shown; (P)) [IV-76, (5P,11R)-7-methyl-6-[2-methyl-6-(2-methylpropyl)phenyl]-12-({5-methyl-6-[1-(trifluoromethyl)cyclopropyl]-5H-pyrrolo[2,3-b]pyrazin-3-yl}methyl)-11-[(propan-2-yloxy)methyl]-9-oxa-2λ^6-thia-3,5,12,19-tetraazatricyclo[12.3.1.1∧{4,8}]nonadeca-1(18),4(19),5,7,14,16-hexaene-2,2,13-trione]
16 | > 60 | < 1 |  | Cc1cccc(CCC(C)C)c1-c1nc2nc(c1C)OC[C@@H](CC(C)(C)C)N(Cc1cnc3cc(C(C)C)n(C)c3n1)C(=O)c1cccc(c1)S(=O)(=O)N2 (single isomer, unassigned) [Compound I-202]
17 |  | < 1 | > 60 | Cc1cccc(C)c1-c1cc2nc(n1)NS(=O)(=O)c1cccc(c1)C(=O)N(Cc1cnc3cc(C(C)(C)C)n(C)c3n1)[C@@H](CC1CC(F)(F)C1)CO2 (single isomer, unassigned) [IV-55, 12-[(6-tert-Butyl-5-methyl-pyrrolo[2,3-b]pyrazin-3-yl)methyl]-11-[(3,3-difluorocyclobutyl)methyl]-6-(2,6-dimethylphenyl)-2,2-dioxo-9-oxa-2λ^6-thia-3,5,12,19-tetrazatricyclo[12.3.1.14,8]nonadeca-1(18),4(19),5,7,14,16-hexaen-13-one]
18 |  | 1 to 3 | > 60 | Cc1cccc(C)c1-c1cc2nc(n1)NS(=O)(=O)c1cccc(c1)C(=O)N(Cc1cnc3oc(C4CC4)cc3n1)[C@@H](C1(C(C)C)CC1)CO2 (single isomer, unassigned) [IV-61, 12-[(6-cyclopropylfuro[2,3-b]pyrazin-2-yl)methyl]-6-(2,6-dimethylphenyl)-11-(1-isopropylcyclopropyl)-2,2-dioxo-9-oxa-2λ^6-thia-3,5,12,19-tetrazatricyclo[12.3.1.14,8]nonadeca-1(18),4(19),5,7,14,16-hexaen-13-one]
19 |  | < 1 | > 60 | Cc1cccc(C)c1-c1cc2nc(n1)NS(=O)(=O)c1cccc(c1)C(=O)N(Cc1cnc3cc(C(C)(C)C)n(C)c3n1)[C@H](C1CCCO1)CO2 (single isomer, unassigned) [IV-96]
20 |  | < 1 |  | Cc1cccc(C)c1-c1cc2nc(n1)NS(=O)(=O)c1cccc(c1)C(=O)N(Cc1cnc3cc(C(C)(C)C)n(C)c3n1)[C@H](C1CCCO1)CO2 (single isomer, unassigned) [IV-97]
